Measurements from patent publication US4788178A, “Use of gonadoliberin and gonadoliberin agonists for the treatment of climacteric complaints” (Hoechst Aktiengesellschaft, priority 1984, dated 1988).

Key:
parathyroid hormone [1] = assay: Action of buserelin to lower parathyroid hormone in blood serum of rats; assay type: in vivo, female Wistar rats
Method: 4 groups each containing 5 female Wistar rats were treated with placebo or three different doses (1 ng/kg, 5 ng/kg and 50 ng/kg) of buserelin. An initial blood sample was taken from all animals (initial value). Thereafter, the animals were given an injection of buserelin in physiological sodium chloride solution with the addition of 0.25% Haemaccel^R, and the placebo group was given the same amount of physiological sodium chloride solution with the addition of 0.25% Haemaccel^R. Blood samples were taken after 90 minutes and 240 minutes. The blood serum was investigated for parathyroid hormone. […] Explanation of the FIG. 1: The time course of the PTH level after i.v. administration of 1 ng/kg buserelin (curve 1), 5 ng/kg (curve 2) and 50 ng/kg (curve 3) is shown. […] All measurements are indicated with standard deviation (n=5).

parathyroid hormone [2] = conditions: after infusion of calcium; similar small doses; cited from earlier work
parathyroid hormone [3] = assay: Regulating action of small doses of buserelin on parathyroid hormone in the plasma of rats; assay type: in vivo; conditions: young female rats with a high level of parathyroid hormone
Text: Increased levels of parathyroid hormone are found in bone marrow in cases of osteoporosis (Klin. Wochenschr. 62, 129-132, 1984); parathyroid hormone has an osteolytic effect. In young female rats with a high level of parathyroid hormone, small doses of the gonadoliberin agonist buserelin reduced parathyroid hormone in the plasma, although a parathyroid hormone level which has been reduced by infusion of calcium is raised by similar doses of buserelin (see German Patent Application No. P 33 32 329.1). It is possible that this regulating action of buserelin on parathyroid hormone plays a part in the treatment of ostalgia and osteoporosis.

Question: Which “dose dependence of the parathyroid hormone lowering effect” value (parathyroid hormone [1]; 1, 5 and 50 ng/kg i.v., 90 minutes) does the source give for `CCNC(=O)[C@@H]1CCCN1C(=O)[C@H](CCCNC(=N)N)NC(=O)[C@H](CC(C)C)NC(=O)[C@@H](COC(C)(C)C)NC(=O)[C@H](Cc1ccc(O)cc1)NC(=O)[C@H](CO)NC(=O)[C@H](Cc1c[nH]c2ccccc12)NC(=O)[C@H](Cc1cnc[nH]1)NC(=O)[C@@H]1CCC(=O)N1` [buserelin, [D-Ser(Bu^t)^6]-gonadoliberin-(1-9)-nonapeptide ethylamide] here?
Answer: Its value is “best effect being observed at the low doses”.

Question: And the “level of parathyroid hormone in blood serum after 90 minutes” value (parathyroid hormone [1]; i.v. 1 ng/kg, 5 ng/kg and 50 ng/kg buserelin, female Wistar rats, 90 minutes, n=5)?
Answer: Its value is “decreased”.

Question: What about the “level of parathyroid hormone in blood serum after 240 minutes” value (parathyroid hormone [1]; i.v. 1, 5 and 50 ng/kg, 240 minutes) of the same molecule?
Answer: Its value is “initial value had been regained”.

Question: And the “parathyroid hormone level previously reduced by infusion of calcium” value (parathyroid hormone [2])?
Answer: Its value is “raised”.

Question: And the “parathyroid hormone in the plasma” value (parathyroid hormone [3])?
Answer: The value was “reduced”.
